Measurements published in US20070184082A1, “Biocompatible polymeric delivery systems for sustained release of quinazolinones” (priority 2004, published 2007).

How the values were obtained:
healthy male volunteers = test: Phase I clinical study of safety of oral halofuginone, three dosing regimens; format: in vivo, human
Protocol: The Phase I clinical study described below was conducted in the PPD Development Clinical Pharmacology Unit, 72 Hospital Close, Evington, Leicester, United Kingdom, between September 2001 and October 2001. The objective of this study was to compare the safety and tolerability of halofuginone when a daily dose of 2 mg is administered using three different dosing regimens.
A single-center, open label, three-period, phase I study was performed. Eight subjects attended the PPD Development Clinic for pre-study screening […]. Visits at the Clinic were as follows:
Subjects were admitted to the Clinic on the evening of Day-1. After an overnight fast, subjects received an oral dose of 0.25 mg halofuginone with a standard snack. Each subject received a total of eight doses at 3-hour intervals starting at approximately 10:00 h on Day 1, and remained resident in the Clinic until the morning of Day 3 [after the 24 hour pharmacokinetic (PK) sample]. They returned to the Clinic for an out-patient visit on the morning of Day 4 to provide a PK blood sample. There was a washout of at least 6 days after the last dose in Period 1 before the start of dosing in Period 2.
Subjects were admitted to the Clinic at approximately 07:00 h on Day 1. Subjects were provided with breakfast and then fasted until the first dose. Subjects received an oral dose of 0.5 mg halofuginone with a standard meal at 6-hour intervals starting at approximately 13:00 h (a total of four doses) and remained resident in the Clinic until the morning of Day 3 (after the 24 hour PK sample). They returned to the Clinic for an out-patient visit on the morning of Day 4 to provide a PK blood sample. There was a washout of at least 6 days after the last dose in Period 2 before the start of dosing in Period 3.
Subjects were admitted to the Clinic on the evening of Day-1. After an overnight fast, subjects received a single oral dose of 2 mg halofuginone with breakfast at approximately 07:00 h on Day 1 and remained resident in the Clinic until the morning of Day 2 (after the 24 hour PK sample). They returned to the clinic for an out-patient visit on the morning of Day 3 to provide a PK blood sample.
Adverse events (AEs) were monitored throughout the study period. Vital signs (including blood pressure, pulse rate and oral body temperature), electrocardiogram (ECG), physical examinations and routine laboratory safety analyses were conducted at the pre-study screening and at the post-study follow-up visits.
Eight healthy male Caucasian subjects were enrolled into the study. The mean age was 31.1 years (range 19-39 years), mean height was 176.6 cm (range 169-184 cm), mean weight was 78.9 kg (range 62.7-91.7 kg) and mean BMI was 25.2 kg/m^2 (range 21.9-27.9 kg/m^2). All subjects completed the study.

clinical = settings: human, in vivo, po, 2 mg
Protocol: The present interim pharmacokinetic analysis was carried out by ASTER. Patients included were treated for solid tumour. On study Day 1 each patient received one oral dose of halofuginone, either 1 mg (one patient) or 2 mg (6 patients), and blood samples for pharmacokinetics were collected up to 72 hours (3 days) after dosing. Immediately after the collection of the 72 hour blood sample, patients started the multiple dose regimen consisting in morning daily dose administration of 1 mg (for subject No.1) or 2 mg (6 remaining patients) until study Day 15. Urine samples were collected over 48 hours after first dosing. Urine concentrations were only available for patients No.1, No.2, No.3 and No.4, and thus only 4 patients were included in the analysis of urine excretion data.

humans = test: Maximum tolerated oral dose of halofuginone in humans; settings: oral administration

## O=C(CC1NCCCC1O)Cn1cnc2cc(Br)c(Cl)cc2c1=O (centres unmarked) [halofuginone, 7-bromo-6-chloro-3-[3-(3-hydroxy-2-piperidinyl)-2-oxopropyl]-4(3H)-quinazolinone]
Healthy male volunteers; 2 mg given as eight doses of 0.25 mg with a snack or 4 doses of 0.5 mg with a meal
  tolerability conclusion: safe and well tolerated
Healthy male volunteers; human, in vivo
  treatment-emergent AEs considered moderate in severity: two
Healthy male volunteers; male, human, in vivo
  headache AEs: 3 AEs
  nausea AEs: 13 AEs
  time to resolution of all vomiting AEs and most nausea AEs: 1 h and 0.717 h
  total AEs reported: 29
  treatment-emergent AEs: 28
  treatment-emergent AEs considered mild: 26
Healthy male volunteers; single dose of 2 mg with a meal
  tolerability conclusion: less well tolerated
clinical
  half-life: 37.2 h
humans
  maximum tolerated dose with no adverse effects observed: 1 mg/day
